Measured values reported in patent US20260347380A1, “MODULATORS OF CD1 PROTEIN BINDING TO T CELL RECEPTORS” (The Brigham and Women's Hospital, Inc., priority 2022, published 2026).
“Also recorded” adds a separate entry of the source. Like-named read-outs stand apart in the source and are kept apart here.

What was measured:
[1] = target: CD1a protein binding to RCS36 T cells (Homo sapiens, UniProt P06126); test: CD1a tetramer staining of human CD1a autoreactive T cells (block of CD1a protein binding to T cells), flow cytometry, FIG. 5; conditions: in vitro, human CD1a tetramers
Method: Exemplified sphingomyelins block CD1a protein binding to RCS36 T cells. Fluorescent human CD1a tetramers were treated with media (mock) or a sphingomyelin variant synthesized with the indicated fatty chain and tested for staining of human CD1a autoreactive T cells using flow cytometry. In all cases the fatty acyl group is conjugated to a C18:1 sphingosine unit. Thus, the C28:1 fatty acyl group and the C18:1 sphingosine group constitute C46:2 sphingomyelin (compound 10).
Generally, naturally occurring cellular sphingomyelins within mammalian cells occur as mixtures, and they are most commonly C34-C36 but can range up to C42 in length.
The degree of inhibition for CD1a protein binding to T cells expressing receptors that normally bind to CD1a was tested for the exemplified compounds 1-10 (see FIG. 5). Increased chain length contributed to blockade in all cases, and the non-natural positioning of the second unsaturation in the fatty acyl unit affected blockade. More blockade was seen when the unsaturation was generated in positions more distal to the head group located at positions 15-17 (Δ15, Δ17). […] Accordingly, additional SM blockers include those with increased length of alkyl chains beyond C46, where the unsaturation is moved to more […] positions in the fatty acyl chain and the number of unsaturations in the fatty acid chain is increased. […]

[2] = system: human CD1a transgenic mouse ear skin; test: imiquimod (Aldara)-induced psoriasiform skin inflammation in CD1a transgenic mice: ear swelling and skin images; format: in vivo; conditions: for inflammatory lesions / visible skin inflammation: images day 7, topical 20 μg in ethanol
Method: (§1) Sphingomyelin species C34:1, C42:2 or C46:2 (20 μg/20 μl ethanol), or vehicle alone (20 μl ethanol) were applied topically to WT or CD1a transgenic mouse ear skin at 48 hour intervals before and during application of Aldara on days 0-5 (20 mg 5% imiquimod cream).
Daily measurement of ear swelling induced by imiquimod treatment of wild-type (WT) and CD1a transgenic mice (CD1a) treated topically with 20 μg sphingomyelin (SM34:1, SM42:2 or SM46:2) dissolved in ethanol, or ethanol alone control, as in FIG. 6. (N=2-3, 2-way-ANOVA with Dunnett's test, *, P<0.05; ****, P<0.0001 indicates significance on comparison to “CD1a:EtOH” at day 7, mean±SD).
Representative images of imiquimod-treated wild-type (WT) and CD1a transgenic mouse ear skin (CD1a) treated topically with 20 μg sphingomyelin (SM34:1, SM42:2 or SM46:2) dissolved in ethanol, or ethanol alone control, as in FIG. 6, images taken on day 7. Steroid is mometasone cream.
CD1a is normally expressed on Langerhans cells in the epidermal layer of human skin. […] The lipids of this disclosure block CD1a binding to several T cell clones in vitro and also more broadly block the response of larger populations of polyclonal T cells that recognize CD1a in vivo, leading to decreased inflammation in the skin.
Synthetic long (C46:2 SMΔ17, compound 10), intermediate (C42:2Δ15 SM) and short chain (C34:1 SM) sphingomyelins were compared for inflammatory response. Unlike natural preparations that contain mixtures of short and long chain lipids, these experiments used pure synthetic lipids to titrate CD1a binding and inhibition of immune response. The functional requirements for the delivery vehicle are that it must: 1) dissolve amphipathic lipids, 2) be safe, immunologically unreactive, and non-toxic to skin and 3) create a lipid film that can subsequently penetrate to the epidermal layers, where CD1a is normally located in human skin and in the skin of CD1a transgenic mice. In this experiment, ethanol was chosen which is a chemically simple, safe and effective vehicle; however, other vehicles can also be used.
A widely used model of psoriasiform and dermatitic inflammation induced by Aldara cream, whose active ingredient is a toll-like receptor 7 agonist (imiquimod), was used in this example. Experiments were carried out in which lipid antagonists were applied to the skin of human CD1a transgenic mice in an ethanol carrier, which dried rapidly, leaving a lipid film on the skin. A significant reduction in ear swelling was observed, as a global measure of inflammation and psoriasiform and dermatitic disease when long chain sphingomyelins were applied before (data not shown) or simultaneously with Aldara treatment (FIGS. 7-11).

[3] = system: Skin T cell and draining lymph node T cell; test: flow cytometry of ear skin and draining lymph node of imiquimod-treated mice (FIG. 9A); format: in vivo, mouse
Method: as §1
Flow cytometry analysis of ear skin of imiquimod-treated wild-type (WT) and CD1a transgenic mice (CD1a) treated topically with 20 μg sphingomyelin (SM34:1, SM42:2 or SM46:2) dissolved in ethanol, or ethanol alone control, as in FIG. 6. Skin T cell and draining lymph node T cell, frequency was determined. And lymph node CD4 and CD8 T cells assessed for cell surface CD69 expression, which is an indication of T cell activation. Skin and draining LN eosinophil and neutrophil frequency was determined. (N=2-3, 1-way-ANOVA with Dunnett's test, *, P<0.05; **, P<0.01; ***, P<0.001; ****, P<0.0001, mean±SD).

skin cytokines = test: skin cytokine levels of imiquimod-treated mice, cytometric bead array (FIG. 9B); format: in vivo, mouse; conditions: day 7
Method: as §1
(§2) Skin cytokine levels were assessed on day 7 of imiquimod-treated wild-type (WT) and CD1a transgenic mice (CD1a) treated topically with 20 μg sphingomyelin (SM34:1, SM42:2 or SM46:2) dissolved in ethanol, or ethanol alone control, as in FIG. 6, as measured by cytometric bead array. (N=2-3, 1-way-ANOVA with Dunnett's test, *, P<0.05; **, P<0.01; ***, P<0.001; ****, P<0.0001, mean±SD).

plasma cytokines = test: plasma cytokine levels of imiquimod-treated mice, cytometric bead array (FIG. 10); format: in vivo, mouse
Method: as §1
as §2, with “Plasma” for “Skin”, “of the blood” for “were assessed on day 7”, “P<0.01,” for “P<0.01; ***, P<0.001; ****, P<0.0001,”

[4] = system: ears of hCD1a and WT mice; test: MC903-induced type 2 skin inflammation and itch in hCD1a mice (FIG. 11); format: in vivo, mouse
Method: FIG. 11 show the impact of sphingomyelin application on MC903 type 2 inflammation and clinical itch. The ears of hCD1a and WT mice were topically treated with 1 nmol MC903/EtOH on days 0, 2 and 5. 20 μg/20 μl of SM 46:2, SM 42:2, SM 34:1 and vehicle were applied on the ear tissue on days-2, 0, 2 and 4. (A) Ear thickness, and (B) itching frequency were evaluated at endpoint of day 6. Each data plot represents an individual ear. Plots show mean±SEM. Statistics were calculated using one-way ANOVA with Tukey post-test. […], **** P<0.001, NS=nonsignificant.
In order to investigate whether SM had efficacy in a different inflammatory skin model, we utilized the MC903-induced model of type 2 cytokine inflammation which has features of dermatitis in humans and prominently causes itch, a major treatable skin symptom. The MC903-induced type 2 inflammation is amplified in the presence of hCD1a (Hardman et al Nat Comms 2022). […] These mice normally express CD1d and then were engineered to express CD1a. […] As well as having potential therapeutic applications in diseases involving type 2 inflammation in humans, the data support utility in treating broader diseases where pruritus and itch are symptoms. CD1a has not been previously linked with pruritus and so this represents a new area of biology and opens new areas for therapeutic application.

CD1a = CD1a (Homo sapiens, UniProt P06126); test: structure of CD1a-lipid complexes (FIG. 3, FIG. 4; co-crystallization); conditions: for binding mode to CD1a and effect on approach of T cell receptors: sphingomyelins, FIG. 3
Excerpt: Sulfatide sits similarly within CD1a as compared to other lipids, but the sulfatide headgroup alters the protein surface of CD1a and protrudes to the outer surface of CD1a where it can block T cell receptors.
Sulfatides (compounds S1-S10) have the same kinds of CD1a binding lipid tails as the synthetic sphingomyelins, but carry a differing headgroup comprised of sulfate and carbohydrate rather than phosphocholine. […] However, the head group of sulfatide has two proposed mechanisms for blocking TCR contact. […] However, the sulfatide moiety also disrupts a triad of residues on the outer surface of CD1a, which changes the intrinsic conformation of CD1a at the site at which the TCR can bind. These structural data predict that sulfatides could be particularly broad and efficacious blockers of T cell response.

CD1a-T cell receptor = conditions: CD1a tetramer binding in vitro, J. Exp. Med. 2021, cited from earlier work
[5] = MC903, hCD1a mice, day 6, 20 μg topical

CD1a, sequence (P06126 17-327): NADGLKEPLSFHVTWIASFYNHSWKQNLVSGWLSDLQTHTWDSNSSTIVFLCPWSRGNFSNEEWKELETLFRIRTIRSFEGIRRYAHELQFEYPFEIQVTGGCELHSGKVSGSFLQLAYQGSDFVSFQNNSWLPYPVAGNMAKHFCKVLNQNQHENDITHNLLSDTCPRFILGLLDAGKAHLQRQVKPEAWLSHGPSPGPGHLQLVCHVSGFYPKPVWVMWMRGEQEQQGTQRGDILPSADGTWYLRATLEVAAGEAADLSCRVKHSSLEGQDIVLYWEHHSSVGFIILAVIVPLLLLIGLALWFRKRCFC
CD1a, sequence (P61769 21-119 partner): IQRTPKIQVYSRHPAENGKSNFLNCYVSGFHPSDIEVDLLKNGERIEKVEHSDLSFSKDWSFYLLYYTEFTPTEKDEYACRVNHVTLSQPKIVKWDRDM
CD1a protein binding to RCS36 T cells, sequence (P06126 17-327): as the sequence (P06126 17-327) above
CD1a protein binding to RCS36 T cells, sequence (P61769 21-119 partner): as the sequence (P61769 21-119 partner) above

## CCCCCCCCCC/C=C\CCCCCCCCCCCCCCCC(=O)N[C@@H](COP(=O)([O-])OCC[N+](C)(C)C)[C@H](O)/C=C/CCCCCCCCCCCCC [Compound 10, 46:2 SM d18:1/28:1 (17Z)]
[1]
  inhibition of CD1a protein binding to T cells: strongest blockade; also recorded: strongly blocked CD1a binding to human T cell receptors in vitro
[2]; imiquimod, CD1a transgenic mice, topical 20 μg in ethanol
  ear swelling / ear thickening: reduced skin swelling; also recorded: most significantly inhibited
[2]; imiquimod
  inflammatory lesions / visible skin inflammation: most significantly inhibited
[2]; imiquimod, listed as C46:2
  inflammatory lesions / visible skin inflammation: significantly reduced skin inflammation
[2]; imiquimod, listed as C46:2 SM
  inflammatory lesions / visible skin inflammation: Reduced inflammatory lesions
[2]; in vivo mouse model, ethanol application
  protection from disease: protection from disease
[3]; CD1a transgenic mice, topical in ethanol
  cellular inflammation: reduced skin swelling and cellular inflammation in vivo
[3]; lymph node CD4 and CD8 T cells
  CD69 (surface marker of T cell activation): significant decreases
Skin cytokines
  skin IFN-γ: significant decreases
  skin IL1α: significant decreases
  skin IL17α: significant decreases
  skin IL-1β: significant decreases
  skin IL-6: significant decreases
  skin IL-17f: significant decreases
  skin IL-22: significant decreases
  skin TNFα: significant decreases
Plasma cytokines
  plasma IFNβ: significantly reduced
  plasma IL17α: significantly reduced
  plasma IL-4: significantly reduced
[4]; MC903, day 6, 20 μg topical
  ear thickness vs wild-type mice treated with MC903: significantly reduced
  pruritus vs wild-type mice treated with MC903: significantly reduced
[4]; [5]
  ear thickness vs vehicle control: significantly reduced
  itching/pruritus scores vs vehicle control: significantly reduced

## sulfatide
CD1a; sulfatide, co-crystallized, FIG. 4
  complex with CD1a: CD1a was co-crystallized with sulfatide; also recorded: forms complex with CD1a

## CCCCCCCC/C=C\CCCCCCCCCCCCCC(=O)N[C@@H](COP(=O)([O-])OCC[N+](C)(C)C)[C@H](O)/C=C/CCCCCCCCCCCCC [42:2 SM]
CD1a
  binding mode to CD1a and effect on approach of T cell receptors: binds CD1a with its phosphocholine headgroup protruding, which blocks approach of T cell receptors
CD1a-T cell receptor
  CD1a-T cell receptor binding: blocked CD1a-T cell receptor binding
CD1a-T cell receptor; listed as C42:2 compound
  CD1a-T cell receptor binding: blocked better than the singly unsaturated C42:1 compound

## CCCCCCCCCC/C=C\CCCCCCCCCCCCCC(=O)N[C@@H](COP(=O)([O-])OCC[N+](C)(C)C)[C@H](O)/C=C/CCCCCCCCCCCCC [Compound 8, 44:2 SM d18:1/26:1 (15Z)]
[1]
  inhibition of CD1a protein binding to T cells: somewhat improved blocking of C44Δ15 SM as compared to C44Δ17 SM

## CCCCCCCC/C=C\CCCCCCCC(=O)N[C@@H](COP(=O)([O-])OCC[N+](C)(C)C)[C@H](O)/C=C/CCCCCCCCCCCCC [36:2 SM]
CD1a
  binding mode to CD1a and effect on approach of T cell receptors: binds by tucking its phosphocholine group largely inside CD1a so T cell receptors can approach CD1a and are not blocked
CD1a-T cell receptor
  CD1a-T cell receptor binding: did not block binding
